Our source for the IC50 and selectivity ratio values is ChEMBL document CHEMBL5150066, “Synthesis of estrone selenocyanate Compounds, anti-tumor activity evaluation and Structure-activity relationship analysis” (Bioorg Med Chem, 2022).

Data set [1] can be described thus: Cytotoxicity against HEK293T cells assessed as inhibition of cell growth incubated for 72 hrs by MTT assay. Format: toxicity, cell-based, HEK-293T. The conditions noted are these: human. Background: Tetrazolium dyes change colour on reduction, which living cells bring about.
For a further data set, the system named is T47D. As to the kind of experiment: Antiproliferative activity against human T47D cells assessed as inhibition of cell growth incubated for 72 hrs by MTT assay. Format: functional, cell-based.
The next data set has as its system MCF7. The experiment in a line: Antiproliferative activity against human MCF7 cells assessed as inhibition of cell growth incubated for 72 hrs by MTT assay. It counts as functional, cell-based. The conditions noted are these: MCF7, 72 h.
A further data set concerns HepG2. As to the kind of experiment: Antiproliferative activity against human HepG2 cells assessed as inhibition of cell growth incubated for 72 hrs by MTT assay. Format: functional, cell-based. Particulars: HepG2, 72 h.
Another data set relates to HeLa. The experiment in a line: Antiproliferative activity against human HeLa cells assessed as inhibition of cell growth incubated for 72 hrs by MTT assay. Format: functional, cell-based.
For the next data set, the system named is SK-OV-3. The experiment in a line: Antiproliferative activity against human SK-OV-3 cells assessed as inhibition of cell growth incubated for 72 hrs by MTT assay. It counts as functional, cell-based. The conditions noted are these: SK-OV-3, 72 h.
A short description of data set [2]: Selectivity index, ratio of IC50 for cytotoxicity against HEK293T cells to IC50 for antiproliferative activity against human HepG2 cells. The conditions noted are these: HEK293T cells versus HepG2 cells, read-out: Ratio IC50. Format: toxicity, cell-based.
A short description of data set [3]: Potency index, ratio of test compound IC50 to 2-methoxyestradiol IC50 for cytotoxicity against human HEK293T cells assessed as inhibition of cell growth incubated for 72 hrs by MTT assay. It counts as toxicity, cell-based, HEK-293T. Particulars: read-out: Ratio IC50.

The term IC50 denotes the concentration that inhibits the measured activity by half. Turning to `COc1ccc2c(c1)CC[C@@H]1[C@@H]2CC[C@]2(C)C(OC(=O)C[Se]C#N)CC[C@@H]12` (stereo partly specified), the IC50 at 72 h in data set [1] came to 45.2 µM. The 50% inhibitory concentration (IC50) in the data set with T47D worked out at 41.5 µM; in the data set with MCF7 it was 88.3 µM; in the data set with HepG2, 61.1 µM; in the data set with HeLa, 56.8 µM; with SK-OV-3 it was 52.4 µM.

With `C[C@]12CC[C@@H]3c4cc(NC(=O)c5ccc(C[Se]C#N)cc5)c(O)cc4CC[C@H]3[C@@H]1CCC2=O`, in data set [1], the IC50 at 72 h came out at 27.2 µM. Further, the IC50 in the data set on T47D is 37.4 µM; in the data set on MCF7, 39.2 µM; in the data set on HepG2, 68.9 µM; in the data set on HeLa, 26.8 µM; in the data set with SK-OV-3, 49.5 µM.

Regarding `C[C@]12CC[C@@H]3c4cc(NC(=O)C[Se]C#N)c(O)cc4CC[C@H]3[C@@H]1CCC2=O`, the selectivity ratio in data set [2] amounted to 15. Further, in data set [1], the IC50 at 72 h was found to be 15.4 µM. Further, the IC50 in the data set with T47D was 22.8 µM; with MCF7, 16.6 µM; with HepG2, 1 µM; in the data set with HeLa it was 9.4 µM; in the data set on SK-OV-3, 2.6 µM. Also, in data set [3], the selectivity ratio at 72 h was 3.

On to `C[C@]12CC[C@@H]3c4cc(N)c(O)cc4CC[C@H]3[C@@H]1CCC2=O`, for which the IC50 at 72 h in data set [1] amounted to 36.4 µM. Further, the IC50 is 50.5 µM with T47D; over 70 µM with MCF7; 56.3 µM with HepG2; over 70 µM in the data set with HeLa; over 70 µM in the data set on SK-OV-3.

For the compound `C[C@]12CC[C@@H]3c4ccc(OCC[Se]C#N)cc4CC[C@H]3[C@@H]1CCC2=O`, the IC50 at 72 h in data set [1] stood at 51.1 µM. The IC50 in the data set with MCF7 is 52.3 µM; in the data set with HepG2 it was over 100 µM; with HeLa it was 20.2 µM; with SK-OV-3, 60.3 µM.

`C[C@]12CC[C@@H]3c4ccc(O)cc4CC[C@H]3[C@@H]1CCC2NC(=O)c1ccc(C[Se]C#N)cc1` (stereo partly specified): the IC50 at 72 h in data set [1] is 13.4 µM. The IC50 in the data set on T47D was determined as 25.1 µM; with MCF7, 17.2 µM; in the data set on HepG2 it was 16.1 µM; with HeLa, 13.7 µM; with SK-OV-3 it was 27.7 µM.

For the compound `C[C@]12CC[C@@H]3c4ccc(O)cc4CC[C@H]3[C@@H]1CCC2NC(=O)C[Se]C#N` (stereo partly specified), the IC50 at 72 h in data set [1] was 25.4 µM. Also, the IC50 in the data set with T47D worked out at 73.4 µM; in the data set with MCF7, 73.4 µM; in the data set on HepG2, 70.4 µM; with HeLa, 70.4 µM; in the data set with SK-OV-3 it was 30.5 µM.

In the case of `COc1ccc2c(c1)CC[C@@H]1[C@@H]2CC[C@]2(C)C(NC(=O)c3ccc(C[Se]C#N)cc3)CC[C@@H]12` (stereo partly specified), the IC50 at 72 h in data set [1] was 24.6 µM. The IC50 came out at 40.8 µM in the data set with T47D; 15.8 µM with MCF7; 13.8 µM with HepG2; 9.6 µM with HeLa; 22.4 µM in the data set with SK-OV-3.

As for `C[C@]12CC[C@@H]3c4ccc(OCCCCCCCC[Se]C#N)cc4CC[C@H]3[C@@H]1CCC2=O`, the 50% inhibitory concentration (IC50) at 72 h in data set [1] stood at 8.9 µM. Also, the IC50 with T47D is 59.2 µM; in the data set with MCF7 it was 8 µM; in the data set on HepG2, 42.5 µM; in the data set on HeLa, 5.6 µM; in the data set on SK-OV-3, 20.1 µM.

For the compound `C[C@]12CC[C@@H]3c4cc(NC(=O)CCCC[Se]C#N)c(O)cc4CC[C@H]3[C@@H]1CCC2=O`, the IC50 at 72 h in data set [1] worked out at 18.2 µM. Moreover, the concentration for half-maximal inhibition (IC50) in the data set on T47D came to 21.8 µM; with MCF7 it was 17.3 µM; in the data set with HepG2 it was 11 µM; in the data set on HeLa, 13.7 µM; with SK-OV-3, 15.6 µM.

As to `COc1ccc2c(c1)CC[C@@H]1[C@@H]2CC[C@]2(C)/C(=N/OC(=O)C[Se]C#N)CC[C@@H]12`, the IC50 at 72 h in data set [1] was 25.2 µM. Moreover, the IC50 in the data set with T47D was 24.2 µM; with MCF7, 18.8 µM; in the data set on HepG2 it was 62.5 µM; with HeLa, 26.3 µM; in the data set with SK-OV-3, 53.4 µM.

For the compound `C[C@]12CC[C@@H]3c4cc(NC(=O)CCCCCCCCC[Se]C#N)c(O)cc4CC[C@H]3[C@@H]1CCC2=O`, the IC50 at 72 h in data set [1] is 17.2 µM. Moreover, the IC50 in the data set on T47D came to 24.6 µM; with MCF7, 9.3 µM; with HepG2 it was 31 µM; in the data set with HeLa it was 13.7 µM; in the data set with SK-OV-3 it was 14.4 µM.

Consider `C[C@]12CC[C@@H]3c4ccc(OCCCCCCCCCCCC[Se]C#N)cc4CC[C@H]3[C@@H]1CCC2=O`, for which, in data set [1], the IC50 at 72 h was 16.5 µM. Further, the IC50 in the data set with T47D is 19.7 µM; with MCF7, 27.5 µM; with HepG2 it was over 100 µM; in the data set on HeLa, 18.2 µM; in the data set on SK-OV-3 it was 46.6 µM.

Regarding `COc1ccc2c(c1)CC[C@@H]1[C@@H]2CC[C@]2(C)/C(=N/OC(=O)c3ccc(C[Se]C#N)cc3)CC[C@@H]12`, the IC50 at 72 h in data set [1] is 23.2 µM. Besides, the IC50 with T47D is 24.2 µM; in the data set with MCF7, 3.9 µM; in the data set with HepG2, 80.4 µM; in the data set on HeLa, 21 µM; in the data set with SK-OV-3, 69 µM.

As for `COc1ccc2c(c1)CC[C@@H]1[C@@H]2CC[C@]2(C)C(OC(=O)c3ccc(C[Se]C#N)cc3)CC[C@@H]12` (stereo partly specified), in data set [1], the IC50 at 72 h worked out at 29.7 µM. Besides, the IC50 is over 100 µM with T47D; 55.5 µM in the data set on MCF7; 35.9 µM in the data set on HepG2; 47.5 µM with HeLa; 56.3 µM with SK-OV-3.

As for `COc1ccc2c(c1)CC[C@@H]1[C@@H]2CC[C@]2(C)C(NC(=O)C[Se]C#N)CC[C@@H]12` (stereo partly specified), the IC50 at 72 h in data set [1] amounted to 15 µM. Moreover, the half-inhibitory concentration (IC50) with T47D is 75.9 µM; in the data set with MCF7 it was 56.1 µM; in the data set with HepG2 it was 10.5 µM; with HeLa, 16.2 µM; in the data set with SK-OV-3, 30.6 µM.

In the case of `C[C@]12CC[C@@H]3c4ccc(OCCC[Se]C#N)cc4CC[C@H]3[C@@H]1CCC2=O`, the IC50 at 72 h in data set [1] came to 43.9 µM. The IC50 is over 100 µM with T47D; 48.1 µM in the data set on MCF7; over 100 µM with HepG2; 18.2 µM with HeLa; 54.6 µM in the data set with SK-OV-3.

`C[C@]12CC[C@@H]3c4ccc(OCCCC[Se]C#N)cc4CC[C@H]3[C@@H]1CCC2=O`: in data set [1], the half-inhibitory concentration (IC50) at 72 h stood at 42.8 µM. Also, the IC50 in the data set with T47D is 75.7 µM; in the data set with MCF7, 41.1 µM; in the data set on HepG2 it was over 100 µM; in the data set with HeLa it was 14 µM; with SK-OV-3 it was 49.7 µM.

As to `COc1cc2c(cc1O)CC[C@@H]1[C@@H]2CC[C@]2(C)[C@@H](O)CC[C@@H]12` [2-METHOXYESTRADIOL], the IC50 at 72 h in data set [1] is 4.6 µM. Besides, the IC50 is 25.2 µM in the data set on T47D; over 70 µM in the data set on MCF7; 2.3 µM in the data set with HepG2; 8.6 µM in the data set with HeLa; 16.5 µM in the data set on SK-OV-3.

Regarding `C[C@]12CC[C@H](O)CC1=CC[C@@H]1[C@@H]2CC[C@]2(C)C(c3cccnc3)=CC[C@@H]12` [ABIRATERONE], the IC50 at 72 h in data set [1] was over 100 µM. The IC50 is 34.7 µM in the data set on T47D; 38.2 µM with MCF7; 59.8 µM with HepG2; 16.9 µM in the data set on HeLa; 59.5 µM in the data set with SK-OV-3.
